Laboratory results as given in patent publication US12209087B2, “AKT1 modulators” (Alterome Therapeutics, Inc., priority 2022, dated 2025).
Read-outs that look alike come from different tables or passages of the source.

Biological target: T1, full length AKT E17K (Homo sapiens, UniProt P31749, E17K)
T1 construct: host or cells: HEK-293 (ATCC CRL-1573)
Assay: NanoBRET Target Engagement (TE) Assay
Assay type: cell-based
Conditions: read-out: AKT1 E17K IC50
Method in brief: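 Compound and tracer incubated 2 h before luminescence at donor 450 nm and acceptor 600 nm, with extracellular signal inhibited. EC50 by sigmoidal variable-slope regression.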

[1] = competitive tracer displacement in living cells
[2] = competitive displacement of tracer in cells

T1 sequence (P31749 whole entry E17K): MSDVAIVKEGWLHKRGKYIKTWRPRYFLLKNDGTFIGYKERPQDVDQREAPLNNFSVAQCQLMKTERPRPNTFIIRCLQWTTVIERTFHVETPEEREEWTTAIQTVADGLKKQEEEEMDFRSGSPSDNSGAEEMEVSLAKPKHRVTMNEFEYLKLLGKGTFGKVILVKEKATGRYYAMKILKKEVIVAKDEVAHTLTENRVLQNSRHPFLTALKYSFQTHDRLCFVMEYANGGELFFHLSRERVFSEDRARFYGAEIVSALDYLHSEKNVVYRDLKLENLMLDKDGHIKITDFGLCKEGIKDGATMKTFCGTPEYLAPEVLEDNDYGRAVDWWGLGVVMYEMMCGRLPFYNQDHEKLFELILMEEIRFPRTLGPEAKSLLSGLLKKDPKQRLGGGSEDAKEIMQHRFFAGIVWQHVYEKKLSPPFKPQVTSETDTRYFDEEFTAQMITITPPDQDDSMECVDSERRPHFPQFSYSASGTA

Structure (SMILES) | IC50 [1] | IC50 [2]
N#Cc1nccc(NC2CCN(Cc3ccc(-n4c(-c5cccnc5N)nc5ccc(-c6ccccc6Cl)nc54)cc3)CC2)n1 [Example 305, 4-((1-(4-(2-(2-Aminopyridin-3-yl)-5-(2-chlorophenyl)-3H-imidazo[4,5-b]pyridin-3-yl)benzyl)piperidin-4-yl)amino)pyrimidine-2-carbonitrile] | < 15 nM | 
N#Cc1ccnc(NC2CCN(Cc3ccc(-n4c(-c5cccnc5N)nc5ccc(-c6ccccc6Cl)nc54)cc3)CC2)n1 [Example 306, 2-((1-(4-(2-(2-Aminopyridin-3-yl)-5-(2-chlorophenyl)-3H-imidazo[4,5-b]pyridin-3-yl)benzyl)piperidin-4-yl)amino)pyrimidine-4-carbonitrile] | 15 to 60 nM | 
N#Cc1cc(NC2CCN(Cc3ccc(-n4c(-c5cccnc5N)nc5ccc(-c6ccccc6Cl)nc54)cc3)CC2)ncn1 [Example 307, 6-((1-(4-(2-(2-Aminopyridin-3-yl)-5-(2-chlorophenyl)-3H-imidazo[4,5-b]pyridin-3-yl)benzyl)piperidin-4-yl)amino)pyrimidine-4-carbonitrile] | 60 to 600 nM | 
N#Cc1nccc(NC2CCN(Cc3ccc(-n4c(-c5cccnc5N)nc5ccc(-c6ccc(Cl)cc6)nc54)cc3)CC2)n1 [Example 308, 4-((1-(4-(2-(2-Aminopyridin-3-yl)-5-(4-chlorophenyl)-3H-imidazo[4,5-b]pyridin-3-yl)benzyl)piperidin-4-yl)amino)pyrimidine-2-carbonitrile] | < 15 nM | 
N#Cc1ccnc(N2CCN(Cc3ccc(-n4c(-c5cccnc5N)nc5ccc(-c6cccc(F)c6)nc54)cc3)CC2)n1 [Example 309, 2-(4-(4-(2-(2-Aminopyridin-3-yl)-5-(3-fluorophenyl)-3H-imidazo[4,5-b]pyridin-3-yl)benzyl)piperazin-1-yl)pyrimidine-4-carbonitrile] | 15 to 60 nM | 
N#Cc1cc(N2CCN(Cc3ccc(-n4c(-c5cccnc5N)nc5ccc(-c6cccc(F)c6)nc54)cc3)CC2)ncn1 [Example 310, 6-(4-(4-(2-(2-Aminopyridin-3-yl)-5-(3-fluorophenyl)-3H-imidazo[4,5-b]pyridin-3-yl)benzyl)piperazin-1-yl)pyrimidine-4-carbonitrile] | < 15 nM | 
N#Cc1cc(NC2CCN(Cc3ccc(-n4c(-c5cccnc5N)nc5ccc(-c6cccc(F)c6)nc54)cc3)CC2)ncn1 [Example 311, 6-((1-(4-(2-(2-Aminopyridin-3-yl)-5-(3-fluorophenyl)-3H-imidazo[4,5-b]pyridin-3-yl)benzyl)piperidin-4-yl)amino)pyrimidine-4-carbonitrile] | < 15 nM | 
N#Cc1ncnc(N2CCN(Cc3ccc(-n4c(-c5cccnc5N)nc5ccc(-c6ccccc6F)nc54)cc3)CC2)n1 [Example 312, 4-(4-(4-(2-(2-Aminopyridin-3-yl)-5-(2-fluorophenyl)-3H-imidazo[4,5-b]pyridin-3-yl)benzyl)piperazin-1-yl)-1,3,5-triazine-2-carbonitrile] | < 15 nM | 
N#Cc1ccnc(NC2CCN(Cc3ccc(-n4c(-c5cccnc5N)nc5ccc(-c6ccccc6F)nc54)cc3)CC2)n1 [Example 313, 2-((1-(4-(2-(2-Aminopyridin-3-yl)-5-(2-fluorophenyl)-3H-imidazo[4,5-b]pyridin-3-yl)benzyl)piperidin-4-yl)amino)pyrimidine-4-carbonitrile] | < 15 nM | 
N#Cc1cc(N2CCN(Cc3ccc(-n4c(-c5cccnc5N)nc5ccc(-c6ccccc6F)nc54)cc3)CC2)ncn1 [Example 314, 6-(4-(4-(2-(2-Aminopyridin-3-yl)-5-(2-fluorophenyl)-3H-imidazo[4,5-b]pyridin-3-yl)benzyl)piperazin-1-yl)pyrimidine-4-carbonitrile] | < 15 nM | 
N#Cc1cc(NC2CCN(Cc3ccc(-n4c(-c5cccnc5N)nc5ccc(-c6ccccc6F)nc54)cc3)CC2)ncn1 [Example 315, 6-((1-(4-(2-(2-Aminopyridin-3-yl)-5-(2-fluorophenyl)-3H-imidazo[4,5-b]pyridin-3-yl)benzyl)piperidin-4-yl)amino)pyrimidine-4-carbonitrile] | 15 to 60 nM | 
N#Cc1nccc(NC2CCN(Cc3ccc(-n4c(-c5cccnc5N)nc5ccc(-c6ccccc6F)nc54)cc3)CC2)n1 [Example 316, 4-((1-(4-(2-(2-Aminopyridin-3-yl)-5-(2-fluorophenyl)-3H-imidazo[4,5-b]pyridin-3-yl)benzyl)piperidin-4-yl)amino)pyrimidine-2-carbonitrile] | < 15 nM | 
N#Cc1nccc(N2CCN(Cc3ccc(-n4c(-c5cccnc5N)nc5ccc(N6CCCNC(=O)C6)nc54)cc3)CC2)n1 [Example 317, 4-(4-(4-(2-(2-Aminopyridin-3-yl)-5-(3-oxo-1,4-diazepan-1-yl)-3H-imidazo[4,5-b]pyridin-3-yl)benzyl)piperazin-1-yl)pyrimidine-2-carbonitrile] | 60 to 600 nM | 
N#Cc1nccc(NC2CCN(Cc3ccc(-n4c(-c5cccnc5N)nc5ccc(N6CCCNC(=O)C6)nc54)cc3)CC2)n1 [Example 318, 4-((1-(4-(2-(2-Aminopyridin-3-yl)-5-(3-oxo-1,4-diazepan-1-yl)-3H-imidazo[4,5-b]pyridin-3-yl)benzyl)piperidin-4-yl)amino)pyrimidine-2-carbonitrile] |  | 15 to 60 nM
N#Cc1ccc(-c2ccc3nc(-c4cccnc4N)n(-c4ccc(CN5CCN(c6nccc(C#N)n6)CC5)cc4)c3n2)cc1 [Example 319, 2-(4-(4-(2-(2-Aminopyridin-3-yl)-5-(4-cyanophenyl)-3H-imidazo[4,5-b]pyridin-3-yl)benzyl)piperazin-1-yl)pyrimidine-4-carbonitrile] |  | 60 to 600 nM
N#Cc1ccc(-c2ccc3nc(-c4cccnc4N)n(-c4ccc(CN5CCC(Nc6ccnc(C#N)n6)CC5)cc4)c3n2)cc1 [Example 320, 4-((1-(4-(2-(2-Aminopyridin-3-yl)-5-(4-cyanophenyl)-3H-imidazo[4,5-b]pyridin-3-yl)benzyl)piperidin-4-yl)amino)pyrimidine-2-carbonitrile] |  | < 15 nM
N#Cc1ccc(-c2ccc3nc(-c4cccnc4N)n(-c4ccc(CN5CCC(Nc6nccc(C#N)n6)CC5)cc4)c3n2)cc1 [Example 321, 2-((1-(4-(2-(2-Aminopyridin-3-yl)-5-(4-cyanophenyl)-3H-imidazo[4,5-b]pyridin-3-yl)benzyl)piperidin-4-yl)amino)pyrimidine-4-carbonitrile] |  | 60 to 600 nM
N#Cc1ccnc(N2CCN(Cc3ccc(-n4c(-c5cccnc5N)nc5ccc(-c6ccccc6C#N)nc54)cc3)CC2)n1 [Example 322, 2-(4-(4-(2-(2-Aminopyridin-3-yl)-5-(2-cyanophenyl)-3H-imidazo[4,5-b]pyridin-3-yl)benzyl)piperazin-1-yl)pyrimidine-4-carbonitrile] |  | 15 to 60 nM
N#Cc1nccc(NC2CCN(Cc3ccc(-n4c(-c5cccnc5N)nc5ccc(N6CCNC(=O)CC6)nc54)cc3)CC2)n1 [Example 323, 4-((1-(4-(2-(2-Aminopyridin-3-yl)-5-(5-oxo-1,4-diazepan-1-yl)-3H-imidazo[4,5-b]pyridin-3-yl)benzyl)piperidin-4-yl)amino)pyrimidine-2-carbonitrile] |  | 600 to 10000 nM
N#Cc1nccc(N2CCN(Cc3ccc(-n4c(-c5cccnc5N)nc5ccc(-c6ccccc6Cl)nc54)cc3)CC2)n1 [Example 324, 4-(4-(4-(2-(2-Aminopyridin-3-yl)-5-(2-chlorophenyl)-3H-imidazo[4,5-b]pyridin-3-yl)benzyl)piperazin-1-yl)pyrimidine-2-carbonitrile] |  | < 15 nM
N#Cc1ccnc(N2CCN(Cc3ccc(-n4c(-c5cccnc5N)nc5ccc(-c6ccccc6Cl)nc54)cc3)CC2)n1 [Example 325, 2-(4-(4-(2-(2-Aminopyridin-3-yl)-5-(2-chlorophenyl)-3H-imidazo[4,5-b]pyridin-3-yl)benzyl)piperazin-1-yl)pyrimidine-4-carbonitrile] |  | 15 to 60 nM
N#Cc1cc(N2CCN(Cc3ccc(-n4c(-c5cccnc5N)nc5ccc(-c6ccccc6Cl)nc54)cc3)CC2)ncn1 [Example 326, 6-(4-(4-(2-(2-Aminopyridin-3-yl)-5-(2-chlorophenyl)-3H-imidazo[4,5-b]pyridin-3-yl)benzyl)piperazin-1-yl)pyrimidine-4-carbonitrile] |  | 15 to 60 nM
N#Cc1ncc(C(=O)N2CCN(Cc3ccc(-n4c(-c5cccnc5N)nc5ccc(-c6ccccc6)nc54)cc3)CC2)s1 [Example 327, 5-(4-(4-(2-(2-Aminopyridin-3-yl)-5-phenyl-3H-imidazo[4,5-b]pyridin-3-yl)benzyl)piperazine-1-carbonyl)thiazole-2-carbonitrile] |  | 60 to 600 nM
N#Cc1ncnc(N2CCN(Cc3ccc(-n4c(-c5cccnc5N)nc5ccc(-c6ccccc6)nc54)cc3)CC2)n1 [Example 328, 4-(4-(4-(2-(2-aminopyridin-3-yl)-5-phenyl-3H-imidazo[4,5-b]pyridin-3-yl)benzyl)piperazin-1-yl)-1,3,5-triazine-2-carbonitrile] |  | < 15 nM
N#Cc1nccc(N2CCN(Cc3ccc(-n4c(-c5cccnc5N)nc5ccc(C6=CCCCC6)nc54)cc3)CC2)n1 [Example 329, 4-(4-(4-(2-(2-Aminopyridin-3-yl)-5-(cyclohex-1-en-1-yl)-3H-imidazo[4,5-b]pyridin-3-yl)benzyl)piperazin-1-yl)pyrimidine-2-carbonitrile] |  | 15 to 60 nM
N#Cc1nccc(N2CCN(Cc3ccc(-n4c(-c5cccnc5N)nc5ccc(C6=CCOCC6)nc54)cc3)CC2)n1 [Example 330, 4-(4-(4-(2-(2-Aminopyridin-3-yl)-5-(3,6-dihydro-2H-pyran-4-yl)-3H-imidazo[4,5-b]pyridin-3-yl)benzyl)piperazin-1-yl)pyrimidine-2-carbonitrile] |  | < 15 nM
N#Cc1cccc(-c2ccc3nc(-c4cccnc4N)n(-c4ccc(CN5CCN(c6ccnc(C#N)n6)CC5)cc4)c3n2)c1 [Example 331, 4-(4-(4-(2-(2-Aminopyridin-3-yl)-5-(3-cyanophenyl)-3H-imidazo[4,5-b]pyridin-3-yl)benzyl)piperazin-1-yl)pyrimidine-2-carbonitrile] |  | < 15 nM
